In a melting point compilation (Tetko et al.; mined from patent text by program, amines drawn as free bases though some values may be those of a salt) one finds melting point data, which are given here for 89 molecules.

Residues, ends and D or L forms follow the SMILES beside them. Where only a bound is given, the exact number is not on record here.

Molecule `Nc1cccc(-c2ccc(CCN3CCN(C(=O)Nc4ccc(Cl)cc4)CC3)cc2)n1` came in with a melting point of 160 to 162 °C.

Turning to `CCOC(=O)c1ccccc1OCCCCCCCCCCC(=O)CCCCOc1ccc(Cl)cc1`, the melting point was 95 to 96 °C.

`COC(=O)C=CCC1C(=O)N2C(C(=O)OCc3ccc([N+](=O)[O-])cc3)=CCC12` (centres undefined) returned a melting point of 109 to 111 °C.

The molecule `COc1ccc(C2=NN(c3ccc(O)cc3)C(=O)[C@@H]3CC=CC[C@H]23)cc1OC` yielded a melting point of 111 to 112 °C.

For the molecule `COc1cccc(C(=O)Nc2nc(C(=O)c3ccc([N+](=O)[O-])c(OC)c3)n3ccccc23)c1`, the melting point turned out to be 167 °C.

For `CC(C)c1cccc(C(C)C)c1NC(=O)CN1CN(c2ccccc2)C2(CCCCC2)C1=O`, the melting point lay in the range of 251 to 253 °C.

Take `O=C(c1cccc(C(F)(F)F)c1)c1cc2c(Br)cccc2o1`: the melting point fell in the range of 91 to 92 °C.

Turning to `CCOC(=O)COc1cccc(C(NC(C)=O)(C(=O)OCC)C(=O)OCC)c1`, the melting point fell in the range of 98.5 to 102 °C.

Molecule `[N-]=[N+]=NCc1ccc(C(=O)c2c(Cl)cccc2Cl)cc1` returned a melting point of 92 to 94 °C.

`CC(C)N(CCN1C(=O)/C(=N/NC(N)=O)c2ccccc21)C(C)C`: the melting point lay in the range of 189 to 191 °C.

The molecule `Cc1[nH]c(=O)c2c(ccc3nc(Nc4c(Cl)cccc4Cl)n(C)c32)c1CCO` had a melting point greater than 300 °C.

`O=c1c2c(O)cc(OCC3CS3)cc2oc2ccc3ccccc3c12` (centres undefined) gave a melting point of 167 to 168 °C.

`COc1ccc(C(=O)c2nnc(-c3ccccc3)o2)cc1` displayed a melting point of 152 °C.

Regarding `C[C@H](N[C@H]1CC[C@@H](c2ccccc2)CC1)[C@@H](O)c1ccc(O)cc1`, the melting point was in the range of 199 to 212 °C.

Turning to `CCOC(=O)c1cc(-c2ccc(Cl)cc2)nc2ccnn12`, the melting point is 160 to 161 °C.

In the case of `CC(c1cccnc1)n1c(=O)[nH]c2cc(Cl)ccc21` (centres undefined), the melting point came to 190 °C.

Turning to `O=CCCC[C@@H](C(=O)O)N1C(=O)c2ccccc2C1=O`, the melting point is 219 to 222 °C.

`Cc1nc(NC(=O)c2ccccc2)sc1C(=O)NCc1ccccc1Cl` came in with a melting point of 191 to 193 °C.

Molecule `O=Cc1ccc(S(=O)(=O)CCCl)cc1` returned a melting point of 70 to 72 °C.

Turning to `CCCCCCc1ccc(C=Nc2ccc(C#N)cc2)cc1`, the melting point was 32.2 to 33 °C.

Molecule `O=[N+]([O-])c1cc(-c2ccncc2)ccc1Cl` returned a melting point of 110 to 111 °C.

As to `CC1(CN2CCN(c3cccccc3=O)CC2)NC(=O)NC1=O` (centres undefined), the melting point lay in the range of 231 to 232 °C.

On to `O=C1c2cc3c(cc2CCC1NC(=O)C(F)(F)F)CCO3` (centres undefined), for which the melting point came out at 208 °C.

For `CC(C)NCC(O)COC1c2ccccc2C(=O)N1c1cccc(Cl)c1` (centres undefined), the melting point was 128 °C.

For `COc1cccc2c1N(CCCO)Cn1cc(CO)cc1-2`, the melting point fell in the range of 116 to 118 °C.

The molecule `CN(C)c1cccc([N+](=O)[O-])c1C(=O)NC1CCN(C(c2ccccc2)c2ccccc2)CC1` returned a melting point of 122 °C.

Molecule `CCCc1nn(-c2ccc(C(F)(F)F)cn2)cc1CCCCOc1nn(-c2ccccc2)cc1CC(=O)O` returned a melting point of 114 to 115 °C.

Molecule `COc1ccc(C2(OC)OC2(C)C)cc1` (centres undefined) came in with a melting point of 41 to 43 °C.

As for `CN(C)Cc1cccc(-c2cc3c(=O)n(NS(C)(=O)=O)c(=O)[nH]c3cc2C(F)(F)F)c1`, the melting point fell in the range of 346 to 348 °C.

Consider `CC(=O)NCCC1CCc2ccc3nn(C)c(C)c3c21` (centres undefined), for which the melting point was 146 to 149 °C.

With `CCN(CC)c1ccc(C2(c3ccc(N(C)C)cc3N(C)C)OC(=O)c3ccccc32)cc1` (centres undefined), the melting point is 168 to 170 °C.

Consider `O=C(O)c1ccccc1NCCNc1ccccc1F`, for which the melting point lay in the range of 127 to 128 °C.

The molecule `CSC1Cc2cc(Cl)ccc2C1=O` (centres undefined) had a melting point of 90 °C.

Consider `CC(=O)CC(=O)Nc1ccc(SC(F)(F)F)cc1`, for which the melting point fell in the range of 120 to 122 °C.

As for `Cc1c(NC(=O)c2ccc(-c3ccc(F)cc3)cc2)ccc2cc(CN3CCCC3CC(C)C)cnc12` (centres undefined), the melting point fell in the range of 193 to 196 °C.

For the molecule `O=C1NC(=O)C(=Cc2ccc(OCc3cccc(Cl)c3)cc2)S1`, the melting point was in the range of 182 to 183 °C.

In turn, `CCc1c(OC)cc(/C=C(\SC)S(C)=O)cc1OC` (centres undefined) had a melting point of 82 to 83 °C.

As for `Cn1nc(Oc2ccc([N+](=O)[O-])c([N+](=O)[O-])c2)c(Cl)c1C(F)(F)F`, the melting point lay in the range of 139 to 140 °C.

`CCCOc1ccc(S(=O)(=O)N2CCN(CCO)CC2)cc1-c1nc2c(CCC)nn(C)c2c(=O)[nH]1` had a melting point of 158 to 159 °C.

`C=CC1(C=C)OC(C(=O)O)Oc2ccc(Cl)cc21` (centres undefined): the melting point turned out to be 144 °C.

For the molecule `CCCCN(C)C(=O)CSCCCCCOc1ccc(C2=C(c3ccccc3)CCCc3cc(O)ccc32)cc1`, the melting point is 112 to 114 °C.

With `Cc1ccc(-n2cnc(OC(C)C(=O)O)n2)cc1` (centres undefined), the melting point is 163 to 165 °C.

Consider `COc1ccsc1C1CCN(C[C@H](Cc2ccccc2)NC(=O)C2CCCCC2)CC1`, for which the melting point lay in the range of 92 to 94 °C.

Regarding `CN1[C@@H](c2cccc(Cl)c2)c2ccccc2S1(=O)=O`, the melting point is 164 °C.

For the molecule `CCn1cc(C(=O)O)c(=O)cc1-c1ccc(N(C)C)c(C)c1`, the melting point is 160 to 162 °C.

Turning to `Nc1sc(-c2cc(F)cc(F)c2)c(CN(C2CCCCC2)C2CCCCC2)c1C(=O)c1ccc(Cl)cc1`, the melting point was 163 to 166 °C.

In turn, `COc1ccc(C2(C3CCCCC3=O)CCC(=O)CC2)c2c1OCCO2` (centres undefined) showed a melting point of 268 to 269 °C.

As to `N#Cc1c(Nc2c(F)cccc2F)cccc1-c1ccccc1`, the melting point fell in the range of 139 to 141 °C.

The molecule `O=c1c2cnc(N3CCCCC3)nc2sn1CCc1ccccn1` had a melting point of 109 to 110 °C.

Regarding `O=C(C[C@H](NC(=O)C(F)(F)F)C(=O)O)c1ccc(F)cc1F`, the melting point was 82.4 to 84 °C.

As to `COC(=O)c1cccc2c1CC(C)(C)CC2N(C)S(C)(=O)=O` (centres undefined), the melting point was in the range of 98 to 99 °C.

The molecule `CC(C)(Br)C(=O)NCc1ccccc1` had a melting point of 73.4 to 75.5 °C.

With `CCCCCCC(=O)N[C@@H]1N=C(c2ccccc2)c2ccccc2N(C)C1=O`, the melting point is 49 to 54 °C.

In the case of `NC(=O)CCC(N)C(=O)NCC(=O)NCC(=O)NC(CO)C(=O)NC(CC(N)=O)C(=O)NC(Cc1ccccc1)C(N)=O` (centres undefined) (H-QGGSNF-NH2; configuration not given here), the melting point is 202 to 204 °C.

The molecule `Cc1ccccc1-c1c(NC(=O)Nc2ccc(F)cc2F)c(=O)oc2c(F)cc(F)cc12` yielded a melting point of 220 to 221 °C.

For `COc1ccc(-c2csc(C(=O)O)n2)cc1OC1CC2CCC1C2` (centres undefined), the melting point fell in the range of 112 to 113 °C.

Molecule `O=C1OC2(CCN(CCC(O)c3ccccc3)CC2)c2ccccc21` (centres undefined) had a melting point of 144 to 146 °C.

As for `NC(=O)c1cnc(C(N)=O)cn1`, the melting point is greater than 270 °C.

As to `Cc1ccc(-c2cccc(/C=C/C(=O)Nc3ccc(CN(C)CC#N)cc3)c2)cc1`, the melting point lay in the range of 163 to 165 °C.

Consider `Oc1ccc2c(c1)NCC2`, for which the melting point lay in the range of 115 to 120 °C.

Molecule `O=C(O)c1ccc(C(F)(F)F)cc1-c1ccc2c(c1)OC[C@H](Cc1ccccc1)[C@H]2O` came in with a melting point of 142 °C.

Molecule `Cn1c(Cl)cccc1=O` gave a melting point of 108 °C.

In turn, `Cc1ccc(Oc2ccncc2N)cn1` yielded a melting point of 74 to 79 °C.

`CC12CCC(O)CC1=CCC1C2CCC2(C)C(=C(F)CO)CCC12` (centres undefined): the melting point fell in the range of 198 to 203 °C.

As for `N#Cc1cccc(C(=O)Nc2c(Cl)cncc2Cl)c1`, the melting point was 242 to 244 °C.

On to `NC(=O)c1ccc(-c2ccc(-c3ccn(C(CC(=O)OCc4ccccc4)C(=O)NC(CO)Cc4ccccc4)c3)cc2)cc1` (centres undefined), for which the melting point lay in the range of 192 to 194 °C.

For the molecule `CCOC(=O)C=Cc1ccc(C=Cc2csc3ccccc23)s1`, the melting point lay in the range of 99 to 100 °C.

`CCCOc1ccccc1-c1nc(O)cc(C(=O)NC)n1`: the melting point was 165 to 166 °C.

For the molecule `O=C(O)C1CCc2c(n(C(=O)c3ccccc3)c3ccc(Cl)cc23)C1` (centres undefined), the melting point fell in the range of 196 to 197 °C.

The molecule `CC1(C)C(=O)N(c2ccc([N+](=O)[O-])c(C(F)(F)F)c2)C(=O)N1CCOCCN1C(=O)N(c2ccc([N+](=O)[O-])c(C(F)(F)F)c2)C(=O)C1(C)C` yielded a melting point of 186 to 188 °C.

For `Cc1cccc(C2=CCN(c3ccc(F)nn3)CC2)c1`, the melting point amounted to 105 °C.

Turning to `Fc1ccc2c(N3CCN(CCCCn4cc5ccccc5c4)CC3)csc2c1`, the melting point lay in the range of 118 to 120 °C.

On to `CCOC(=O)c1nc2c(C(=O)OCC)cccn2c1[N+](=O)[O-]`, for which the melting point was in the range of 139 to 140 °C.

The molecule `CNc1cc(SC2CCN(C)CC2)ccc1[N+](=O)[O-]` had a melting point of 90 °C.

In turn, `C=C(c1ccccc1OC(C)c1ccccc1)n1ccnc1` (centres undefined) yielded a melting point of 172 to 174 °C.

For the molecule `CN(C)c1ccc2[nH]c(=O)oc(=O)c2c1`, the melting point stood at 258 °C.

Consider `CSC(=NC(C)=O)Nc1ccccc1[N+](=O)[O-]`, for which the melting point lay in the range of 120 to 122 °C.

`CCOc1cc2c(cc1OC)C(c1ccc(C(=O)N(C(C)C)C(C)C)cc1)=N[C@@H]1CCOC[C@H]21` returned a melting point of 116 to 120 °C.

Consider `Cc1cc(C(C)(C)C)c(O)c(S(=O)(=O)Nc2ccc(I)cc2)c1`, for which the melting point is 184 to 185 °C.

Take `Cc1cc2cc(NS(C)(=O)=O)cc(-c3cc(Cl)nc4ccccc34)c2n1CC(=O)O`: the melting point lay in the range of 195 to 198 °C.

The molecule `Brc1sc2ccccc2c1Br` came in with a melting point of 57 to 59 °C.

In turn, `O=S(=O)(Nc1ccccc1OCc1ccc2ccccc2n1)c1ccc(Cl)cc1` registered a melting point of 129 to 130 °C.

`CS(=O)CC(=NC1CCCCC1)c1ccccc1O` (centres undefined) registered a melting point of 133 to 134 °C.

Consider `CC(C)n1cc(-c2ccccc2)c(=O)c(-c2ccccc2)c1`, for which the melting point came to 152 °C.

Consider `CN(C)CCNc1cc(Sc2ccc(Cl)cc2)nc(-c2ccc(Cl)c(Cl)c2)n1`, for which the melting point is 99 to 103 °C.

As to `COc1ccc(S(=O)(=O)C(C)(Cc2ccc(OCCN3CCCCC3)cc2)C(=O)NO)cc1` (centres undefined), the melting point was determined as 98 °C.

Turning to `Cc1ccc(CCc2ccccc2Br)c(N)c1`, the melting point fell in the range of 67 to 69 °C.

Turning to `CCC(C)C1Sc2ccccc2NC1=O` (centres undefined), the melting point was 99 to 100 °C.

For `C=C(C)CN1CCCC(C(=O)O)=Cc2cc(-c3ccc(OCCOCCCC)cc3)ccc21`, the melting point lay within 132 to 134 °C.
